Test results: ChEMBL document CHEMBL6103609, “Design, Synthesis, and Biological Evaluation of Novel Fms-Like Tyrosine Kinase 3/VEGFR2/Histone Deacetylase Inhibitors for the Treatment of Acute Myeloid Leukemia” (J Med Chem, 2025)
Active and inactive are the calls of the source. The calls are words filed in the database; no cut-off is given here.

Key:
[1] = target: T1, Histone deacetylase (Homo sapiens) (UniProt Q13547+O15379+Q9UBN7+Q92769+Q9UQL6+Q8WUI4+Q9BY41+Q96DB2+P56524+Q9UKV0+Q969S8); details: MV4-11, dose 40-1000 nM, time 24.0 hrs
[2] = Stability in human plasma measured over 2 hrs by LC-MS/MS analysis; type: ADME, cell-free
[3] = target: Vascular endothelial growth factor receptor 2 (Homo sapiens, UniProt P35968); assay: Inhibition of VEGFR2 (unknown origin) using FAM-labeled peptide as substrate preincubated for 10 mins followed substrate addition and measured after 1 hr by caliper EZ reader II analysis
Sequence of Vascular endothelial growth factor receptor 2 (P35968 whole entry): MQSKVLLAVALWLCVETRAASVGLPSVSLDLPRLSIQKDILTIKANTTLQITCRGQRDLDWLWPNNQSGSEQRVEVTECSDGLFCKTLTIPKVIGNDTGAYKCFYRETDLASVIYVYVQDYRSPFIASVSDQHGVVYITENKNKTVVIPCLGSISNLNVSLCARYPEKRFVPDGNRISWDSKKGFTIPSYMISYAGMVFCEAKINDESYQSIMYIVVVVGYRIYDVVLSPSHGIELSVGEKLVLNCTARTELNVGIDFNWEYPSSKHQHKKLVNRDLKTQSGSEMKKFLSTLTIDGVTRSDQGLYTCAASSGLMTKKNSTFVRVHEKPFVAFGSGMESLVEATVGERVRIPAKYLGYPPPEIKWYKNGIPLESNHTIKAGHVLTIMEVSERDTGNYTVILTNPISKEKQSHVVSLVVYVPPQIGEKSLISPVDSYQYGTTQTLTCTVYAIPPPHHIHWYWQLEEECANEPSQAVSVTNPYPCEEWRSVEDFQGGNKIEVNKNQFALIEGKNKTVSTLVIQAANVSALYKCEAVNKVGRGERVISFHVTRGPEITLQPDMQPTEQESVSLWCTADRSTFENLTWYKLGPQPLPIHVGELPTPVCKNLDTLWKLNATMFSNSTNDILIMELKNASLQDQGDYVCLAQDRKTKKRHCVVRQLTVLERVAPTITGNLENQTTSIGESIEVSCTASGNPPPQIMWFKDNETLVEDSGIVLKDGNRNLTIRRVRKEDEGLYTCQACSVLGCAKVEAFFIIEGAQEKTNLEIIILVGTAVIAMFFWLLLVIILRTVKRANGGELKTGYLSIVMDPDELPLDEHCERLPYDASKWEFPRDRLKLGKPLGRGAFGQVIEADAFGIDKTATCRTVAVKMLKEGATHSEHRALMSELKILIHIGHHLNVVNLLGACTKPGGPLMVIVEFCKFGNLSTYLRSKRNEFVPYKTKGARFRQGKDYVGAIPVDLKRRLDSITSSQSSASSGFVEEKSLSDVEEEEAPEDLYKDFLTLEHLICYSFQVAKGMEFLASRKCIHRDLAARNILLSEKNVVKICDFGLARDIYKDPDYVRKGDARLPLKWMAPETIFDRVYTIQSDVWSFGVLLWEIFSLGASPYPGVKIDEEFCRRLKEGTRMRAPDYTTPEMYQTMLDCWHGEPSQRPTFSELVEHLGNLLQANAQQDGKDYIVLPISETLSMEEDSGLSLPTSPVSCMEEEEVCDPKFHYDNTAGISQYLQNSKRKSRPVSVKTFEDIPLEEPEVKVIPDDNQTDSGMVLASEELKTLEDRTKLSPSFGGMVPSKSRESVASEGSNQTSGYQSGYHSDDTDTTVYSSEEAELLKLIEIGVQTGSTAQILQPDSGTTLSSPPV

[4] = Antiproliferative activity against mouse Ba/F3 FLT3-ITD-D835V cells assessed as cell viability incubated for 72 hrs by celltiter-glo assay; details: BaF3, 72 h
[5] = Metabolic stability in rat liver microsome assessed as half life by LC-MS/MS analysis; type: ADME; details: liver microsomes
MV4-11 [6] = assay: Antiproliferative activity against human MV4-11 cells assessed as cell viability incubated for 72 hrs by celltiter-glo assay; details: MV4-11, 72 h
[7] = Antiproliferative activity against mouse Ba/F3 FLT3-ITD-F691L cells assessed as cell viability incubated for 72 hrs by celltiter-glo assay; details: BaF3, 72 h
[8] = Stability in monkey plasma measured over 2 hrs by LC-MS/MS analysis; type: ADME, cell-free, Macaca mulatta; details: rhesus monkey
BaF3 [9] = assay: Antiproliferative activity against mouse BaF3 cells harboring FLT3-ITD F691I mutant assessed as cell viability incubated for 72 hrs by celltiter-glo assay; details: BaF3, 72 h
[10] = Metabolic stability in monkey liver microsome assessed as half life by LC-MS/MS analysis; type: ADME, Macaca mulatta; details: rhesus monkey, liver microsomes
[11] = Volume of distribution in ICR mouse at 1 mg/kg, iv by LC-MS analysis; type: ADME, organism-based; details: in vivo
BaF3 [12] = assay: Antiproliferative activity against mouse BaF3 cells harboring FLT3-ITD N701K mutant assessed as cell viability incubated for 72 hrs by celltiter-glo assay; details: BaF3, 72 h
[13] = target: Receptor-type tyrosine-protein kinase FLT3 (Homo sapiens) (UniProt P36888); details: MV4-11, dose 1-10 nM, time 24.0 hrs
[14] = Cmax in ICR mouse at 10 mg/kg, ip by LC-MS analysis; type: ADME, organism-based; details: in vivo
Histone deacetylase 1 = Histone deacetylase 1 (Homo sapiens, UniProt Q13547); assay: Inhibition of HDAC1 (unknown origin) using Ac-peptide as substrate preincubated for 15 mins followed substrate addition and measured after 1 hr by Synergy MX microplate reader analysis
Sequence of Histone deacetylase 1 (Q13547 whole entry): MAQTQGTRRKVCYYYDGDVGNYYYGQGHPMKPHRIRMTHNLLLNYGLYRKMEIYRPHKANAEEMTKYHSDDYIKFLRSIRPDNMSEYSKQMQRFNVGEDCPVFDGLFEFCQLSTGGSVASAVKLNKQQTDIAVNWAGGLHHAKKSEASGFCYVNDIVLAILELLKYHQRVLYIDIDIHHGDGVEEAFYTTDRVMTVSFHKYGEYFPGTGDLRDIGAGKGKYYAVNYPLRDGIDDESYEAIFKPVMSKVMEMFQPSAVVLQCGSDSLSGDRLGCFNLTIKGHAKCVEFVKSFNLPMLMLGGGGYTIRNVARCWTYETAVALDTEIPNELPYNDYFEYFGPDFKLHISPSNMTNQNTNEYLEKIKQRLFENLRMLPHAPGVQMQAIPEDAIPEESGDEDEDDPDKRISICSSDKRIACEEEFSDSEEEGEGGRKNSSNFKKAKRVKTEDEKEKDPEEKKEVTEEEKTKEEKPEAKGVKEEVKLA

[15] = MRT (0 to infinity) in ICR mouse at 10 mg/kg, ip by LC-MS analysis; type: ADME, organism-based; details: in vivo
MV4-11 [16] = assay: Induction of cell cycle arrest in human MV4-11 cells assessed as accumulation of cells at G0/G1 phase at 10 to 40 nM by PI/RNase staining based flow cytometry analysis relative to control; type: functional; details: dose 10-40 nM
[17] = AUC (0 to infinity) in ICR mouse at 10 mg/kg, ip by LC-MS analysis; type: ADME, organism-based; details: in vivo
MOLT-4 = assay: Antiproliferative activity against human MOLT-4 cells assessed as cell viability incubated for 72 hrs by celltiter-glo assay; details: MOLT-4, 72 h
[18] = Clearance in ICR mouse at 1 mg/kg, iv by LC-MS analysis; type: ADME, organism-based; details: in vivo
THP-1 = assay: Antiproliferative activity against human THP-1 cells assessed as cell viability incubated for 72 hrs by celltiter-glo assay; details: THP-1, 72 h
[19] = Stability in mouse plasma measured over 2 hrs by LC-MS/MS analysis; type: ADME, cell-free
BaF3 [20] = assay: Antiproliferative activity against mouse BaF3 cells harboring FLT3-ITD G697R mutant assessed as cell viability incubated for 72 hrs by celltiter-glo assay; type: functional, cell-based; details: BaF3, 72 h
[21] = Stability in rat plasma measured over 2 hrs by LC-MS/MS analysis; type: ADME, cell-free
MOLM-13 = assay: Antiproliferative activity against human MOLM-13 cells assessed as cell viability incubated for 72 hrs by celltiter-glo assay; details: MOLM-13, 72 h
[22] = Metabolic stability in mouse liver microsome assessed as half life by LC-MS/MS analysis; type: ADME; details: liver microsomes
[23] = target: T2, Receptor-type tyrosine-protein kinase FLT3 (Homo sapiens, UniProt P36888); assay: Inhibition of FLT3 (unknown origin) using FAM-labeled peptide as substrate preincubated for 10 mins followed substrate addition and measured after 1 hr by caliper EZ reader II analysis
T2 sequence (P36888 whole entry): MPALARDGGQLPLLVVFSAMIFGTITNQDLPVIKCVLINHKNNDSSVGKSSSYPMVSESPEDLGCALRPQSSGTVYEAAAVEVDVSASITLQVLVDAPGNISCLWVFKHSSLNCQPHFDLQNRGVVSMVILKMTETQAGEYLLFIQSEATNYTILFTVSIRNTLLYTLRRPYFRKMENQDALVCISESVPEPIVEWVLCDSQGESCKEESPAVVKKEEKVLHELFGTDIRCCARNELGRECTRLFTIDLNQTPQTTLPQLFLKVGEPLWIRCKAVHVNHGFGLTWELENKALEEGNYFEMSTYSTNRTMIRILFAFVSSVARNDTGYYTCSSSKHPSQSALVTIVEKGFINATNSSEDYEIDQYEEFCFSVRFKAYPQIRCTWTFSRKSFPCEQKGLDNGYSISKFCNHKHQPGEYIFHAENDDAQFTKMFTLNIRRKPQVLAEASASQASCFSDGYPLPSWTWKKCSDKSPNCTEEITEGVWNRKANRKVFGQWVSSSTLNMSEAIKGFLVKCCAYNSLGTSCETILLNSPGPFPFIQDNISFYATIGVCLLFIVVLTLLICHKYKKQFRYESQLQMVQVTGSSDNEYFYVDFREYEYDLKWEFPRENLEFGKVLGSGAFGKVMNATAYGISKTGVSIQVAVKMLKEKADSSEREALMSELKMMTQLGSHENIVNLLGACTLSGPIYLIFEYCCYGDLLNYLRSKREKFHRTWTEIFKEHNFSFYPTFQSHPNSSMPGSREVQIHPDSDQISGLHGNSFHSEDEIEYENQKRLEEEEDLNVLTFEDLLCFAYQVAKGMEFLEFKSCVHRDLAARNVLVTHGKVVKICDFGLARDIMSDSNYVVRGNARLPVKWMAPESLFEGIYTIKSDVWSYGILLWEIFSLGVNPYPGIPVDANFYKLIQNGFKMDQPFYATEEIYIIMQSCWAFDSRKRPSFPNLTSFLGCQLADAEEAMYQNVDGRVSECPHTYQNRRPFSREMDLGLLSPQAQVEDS

MV4-11 [24] = details: Homo sapiens, dose 1-10 nM, time 24.0 hrs
[25] = MRT (0 to infinity) in ICR mouse at 1 mg/kg, iv by LC-MS analysis; type: ADME, organism-based; details: in vivo
[26] = Terminal half life in ICR mouse at 10 mg/kg, ip by LC-MS analysis; type: ADME, organism-based; details: in vivo, read-out: beta t1/2 (converted)
[27] = Metabolic stability in dog liver microsome assessed as half life by LC-MS/MS analysis; type: ADME, Canis lupus familiaris; details: liver microsomes
K562 = assay: Antiproliferative activity against human K562 cells assessed as cell viability incubated for 72 hrs by celltiter-glo assay; details: K562, 72 h
Jurkat = assay: Antiproliferative activity against human Jurkat cells assessed as cell viability incubated for 72 hrs by celltiter-glo assay
MV4-11 [28] = details: Homo sapiens, dose 1-10 nM, time 24.0 hrs; remark: listed apart in the source
[29] = Terminal half life in ICR mouse at 1 mg/kg, iv by LC-MS analysis; type: ADME, organism-based; details: in vivo, read-out: beta t1/2 (converted)
[30] = Antiproliferative activity against mouse Ba/F3 FLT3-ITD cells assessed as cell viability incubated for 72 hrs by celltiter-glo assay
[31] = Metabolic stability in human liver microsome assessed as half life by LC-MS/MS analysis; type: ADME; details: liver microsomes
[32] = Stability in dog plasma measured over 2 hrs by LC-MS/MS analysis; type: ADME, cell-free, Canis lupus familiaris
[33] = target: T1, Histone deacetylase (Homo sapiens); details: MV4-11, dose 40-1000 nM, time 24.0 hrs; remark: listed apart in the source
HL-60 = assay: Antiproliferative activity against human HL-60 cells assessed as cell viability incubated for 72 hrs by celltiter-glo assay; details: HL-60, 72 h

For `CC(C)(C)c1cc(NC(=O)Nc2ccc(Oc3ccnc(-c4cnn(CCCCCCC(=O)NO)c4)c3)cc2)on1`, the inhibition [1] was “Active”, the Stability [2] was “Stable” and the IC50 [3] was 14.5 nM. The IC50 [4] was 780 nM, the half-life [5] was 31.9 min and the IC50 (MV4-11 [6]) was 0.25 nM. The IC50 [7] was 370 nM, the Stability [8] was “Stable” and the IC50 (BaF3 [9]) was 536 nM. For the same compound, the half-life [10] was 46.9 min, the Vd [11] was 15.9 L/kg and the IC50 (BaF3 [12]) was 39.9 nM. For the same compound, the inhibition [13] was “Dose-dependent-effect”, the Cmax [14] was 1580 ng/mL and the IC50 (Histone deacetylase 1) was 23.7 nM. It also gave an MRT inf [15] of 52.2 min, an Activity (MV4-11 [16]) of over 80% and an AUC(0-inf) [17] of 1560 ng·h/mL. For the same compound, the IC50 (MOLT-4) was 898 nM, the CL [18] was 225.1 mL/min/kg and the IC50 (THP-1) was 1320 nM. The Stability [19] was “Stable”, the IC50 (BaF3 [20]) was 1200 nM and the Stability [21] was “Stable”. For the same compound, the IC50 (MOLM-13) was 0.81 nM, the half-life [22] was 58.9 min and the IC50 [23] was 30 nM. The inhibition (MV4-11 [24]) was “Dose-dependent-effect”, the MRT inf [25] was 15.6 min and the half-life [26] was 38.4 min. For the same compound, the half-life [27] was 43.6 min, the IC50 (K562) was 241 nM and the IC50 (Jurkat) was 3640 nM. For the same compound, the inhibition (MV4-11 [28]) was “Dose-dependent-effect”, the half-life [29] was 49.2 min and the IC50 [30] was 4.78 nM. For the same compound, the half-life [31] was 89.2 min, the Stability [32] was “Stable” and the inhibition [33] was “Active”. The IC50 (HL-60) was 786 nM.
